Results taken from patent publication US9145472B2, “Charge reversible polymers” (Wyoming Research Products Center, priority 2006, dated 2015).

Experiments:
[1] = pH-dependent hydrolysis of model amides monitored by 1H-NMR; type: physicochemical
Description: Model compound synthesis and hydrolytic kinetics measurement (Scheme 4—FIG. 4): Briefly, N,N-diethylamine (415 μL, 4 mmol) and 1,2-cis-cyclohexanedicarboxylic anhydride (617 mg, 4 mmol) were dissolved in 10 mL dichloride methane. The reaction was kept at room temperature for 2 h with stirring. The solvent was then removed by rotary evaporation to obtain the raw product. The raw product was purified by recrystallizing from benzene to get 2-[(diethylamino)carbonyl]cyclohexanecarboxylic acid. 1H NMR (400 MHz, CDCl3): δ (ppm): 3.60-3.22 (m), 2.77 (m), 2.51-2.45 (m), 1.87-1.66 (m), 1.58-1.46 (m), 1.49-1.39 (m), 1.28 (q), 1.17 (t). Similarly, 2-[(isopropylamino)carbonyl]cyclohexanecarboxylic acid was synthesized. 1H NMR (400 MHz, CDCl3): δ (ppm): 3.83 (q), 2.73 (q), 2.64 (q), 1.87 (m), 1.79 (m), 1.64 (m), 1.45 (m), 1.33 (m), 1.01 (d).
The hydrolysis of the model compounds was monitored by 1H-NMR. Briefly, 2-[(isopropylamino)carbonyl]cyclohexanecarboxylic acid (10 mg) was dissolved in 2 mL D2O. Sodium carbonate was used to adjust the solution pH to 5.0, 6.0 or 7.4 at 37° C. At predesigned time intervals, 1HNMR spectra of the solution were measured on a Bruker Avance DRX-400 spectrometer. The hydrolysis was monitored by measuring the integrations of the peaks at 3.77-3.9 ppm (CH in the amide of propan-2-amine) and the 3.3-3.5 ppm (CH in the propan-2-amine).
The hydrolysis of model amides of primary and secondary amines made from cis-1,2-cyclohexanedicarboxylic anhydride was tested at different pH values.

[2] = test system: nuclear DNA; conditions: cited from earlier work

hydrolysis of the amide ([1]; pH 5, 37° C.)	hydrolysis of the amide ([1]; pH 6, 37° C.)	extent of amide hydrolysis ([1]; pH 7.4, after 60 h)	hydrolysis of the amide ([1]; pH 7.4)	Structure (SMILES)	molecules that enter the cell that actually bind the nuclear DNA [2]
almost instantly hydrolyzed	slightly slower	50%		CCN(CC)C(=O)C1CCCCC1C(=O)O (stereo not shown) [amide of the secondary amine, 2-[(diethylamino)carbonyl]cyclohexanecarboxylic acid]	
				N.N.[Cl][Pt][Cl] [cisplatin]	less than 1%
hydrolyzed more slowly	hydrolyzed more slowly		did not hydrolyze	CC(C)NC(=O)C1CCCCC1C(=O)O (stereo not shown) [amide of the primary amine, 2-[(isopropylamino)carbonyl]cyclohexanecarboxylic acid]	
